Values after ≈ are worked out from the molar mass of the structure shown.
Tests used:
[1] = biological target: DNA-dependent protein kinase (DNA-PK) (Homo sapiens, UniProt P78527); conditions: background statement, no values; cited from earlier work
[2] = system: DNA-PK autophosphorylation in cancer cell lines; conditions: background statement, no values; cited from earlier work
[3] = Solubility measurements in biorelevant media (24 h shake, HPLC); type: physicochemical
[4] = Water vapour sorption isotherm (DVS, 25° C.); type: physicochemical; conditions: for water uptake / hygroscopic behaviour (in words): water vapour sorption isotherm, FIG. 3
Description: Form I can therefore be classified acc. to Ph. Eur. Criteria (section 5.11.) as not hygroscopic. The max. water uptake level (Δmmax at 98% rh) of Form I is <1% m/m. […] This non-hygroscpopic behaviour of Form I is advantageous both in case of using the material as a starting material, as it readily lends itself to storage, as well as using it “as is” in a pharmaceutical dosage form.
• Powder X-ray diffractions (XRPD) were obtained by standard techniques as described in the European Pharmacopeia 7th Edition chapter 2.9.33 (Cu-Kai radiation, λ=1.5406 Å, Stoe StadiP 611 KL transmission diffractometer, ambient temperature); and in particular • For the amorphous form: The XRPD measurement was performed in transmission geometry with Cu-Kα1 radiation on a Stoe StadiP 611 diffractometer equipped with Mythen1K Si-strip detector (PSD). Approximately 5-20 mg of the sample were prepared on a combinatorial 96-well-plate sample holder comprising a mostly amorphous Kapton® foil on the bottom of the wells. Measurement was carried out by setting following parameters: • angular range: −36°−36 °2θ folded to 0-36 °2θ • angular resolution: 0.03 °2θ • PSD step with: 4 °2θ • measurement time: 30 s/PSD-step • generator settings: 40 mA, 40 kV • For the crystalline Form I: The measurement was performed in transmission geometry with Cu-Kα1 radiation on a Stoe StadiP 611 diffractometer equipped with Mythen1K Si-strip detector (PSD). Approximately 10-100 mg of the sample were prepared between amorphous films. Measurement was carried out by setting following parameters: • angular range: 1°-41 °2θ • angular resolution: 0.015 °2θ • PSD step with: 0.49 °2θ • measurement time: 15 s/PSD-step • generator settings: 40 mA, 40 kV • DSC: • For the amorphous form: • Temperature modulated DSC (TOPEM®) was acquired on a Mettler-Toledo heat-flux Differential Scanning Calorimeter DSC 1 system. Approximately 0.5 mg sample amount were weighed accurately in a 40 μl Aluminium pan which was hermetically closed by a lid. The scan was carried out from 0° C. to 250° C. with a linear heating rate of 2 K/min, overlapped by a non-linear puls-modulated temperature programme with a pulse height of ±0.5 K and a stochastic pulse width from 15 s (min) to 45 s (max). Nitrogen purge gas at 50 mL/min was used. • For crystalline Form I: • DSC measurement was acquired on Mettler-Toledo heat-flux Differential Scanning Calorimeter system DSC 821e. Approximately 1-5 mg sample amount were weighed accurately in a 40 μl Aluminium pan with pierced lid. The scan was carried out from 25° C. to 350° C. with a linear heating rate of 5 K/min and a nitrogen purge gas at 50 mL/min. • TGA: • Sample was investigated on a Mettler-Toledo Thermogravimetric Analyser TGA 851 with autosampler, using a nitrogen inert gas atmosphere (flow 50 mL/min). Approximately 5-20 mg sample amount were weighed accurately in a 100 μl Aluminium pan and hermetically closed by Aluminium lids. Just before insertion to the oven the lid was pierced by a needle of the autosampler system. Scans were carried out from 25° C. to 350° C. at 5 K/min. The result was baseline-corrected with a blank run from an empty 100 μl Aluminium pan of the same type, using the identical temperature profile. • Water Vapour Sorption Isotherm: • Approximately 1-40 mg sample amount were weighed accurately into a 100 μl Al pan and hung into the sample position of the DVS instrument with microbalance and incubator (DVS-Intrinsic; Surface Measurement Systems, SMS). […]

[5] = Thermal behaviour by DSC and TGA; type: physicochemical; conditions: DSC and TGA profiles
Description: By contrast, the amorphous material decomposes at 170° C. (FIG. 2). The crystalline material therefore lends itself to further processing that involves high temperatures, such as hot melt extrusion and melt granulation.
• Powder X-ray diffractions (XRPD) were obtained by standard techniques as described in the European Pharmacopeia 7th Edition chapter 2.9.33 (Cu-Kai radiation, λ=1.5406 Å, Stoe StadiP 611 KL transmission diffractometer, ambient temperature); and in particular • For the amorphous form: The XRPD measurement was performed in transmission geometry with Cu-Kα1 radiation on a Stoe StadiP 611 diffractometer equipped with Mythen1K Si-strip detector (PSD). Approximately 5-20 mg of the sample were prepared on a combinatorial 96-well-plate sample holder comprising a mostly amorphous Kapton® foil on the bottom of the wells. Measurement was carried out by setting following parameters: • angular range: −36°−36 °2θ folded to 0-36 °2θ • angular resolution: 0.03 °2θ • PSD step with: 4 °2θ • measurement time: 30 s/PSD-step • generator settings: 40 mA, 40 kV • For the crystalline Form I: The measurement was performed in transmission geometry with Cu-Kα1 radiation on a Stoe StadiP 611 diffractometer equipped with Mythen1K Si-strip detector (PSD). Approximately 10-100 mg of the sample were prepared between amorphous films. […]

In the case of `COc1ccc([C@@H](O)c2cc(-c3ncnc4cc(N5CCOCC5)ccc34)c(F)cc2Cl)nn1` [(S)-[2-chloro-4-fluoro-5-(7-morpholin-4-yl-quinazolin-4-yl)phenyl]-(6-methoxy-pyridazin-3-yl)-methanol], the “inhibition of DNA-PK activity (in words)” value [1] is listed as “potent and selective inhibitor” and the “inhibition of DNA-PK autophosphorylation (in words)” value [2] is listed as “potent inhibition”.
`COc1ccc([C@@H](O)c2cc(-c3ncnc4cc(N5CCOCC5)ccc34)c(F)cc2Cl)nn1` [Form I, (S)-[2-chloro-4-fluoro-5-(7-morpholin-4-yl-quinazolin-4-yl)phenyl]-(6-methoxy-pyridazin-3-yl)-methanol] gave a solubility at 24 h ([3]; FaSSIF (fasted state simulated intestinal fluid), pH 6.5, thermodynamic from solid, FaSSIF, pH of medium 6.5, 37 °C) of 3 µg/mL (≈ 6.23 µM), a solubility at 24 h ([3]; FeSSIF (fed state simulated intestinal fluid), pH 5, thermodynamic from solid, FeSSIF, pH of medium 5.0, 37 °C) of 17 ± 1 µg/mL (≈ 35.3 µM) and a solubility at 24 h ([3]; SGF (simulated gastric fluid without pepsin), pH 1.2, simulated gastric fluid, thermodynamic from solid, SGF, pH of medium 1.2, 37 °C) of 891 ± 33 µg/mL (≈ 1850 µM). The “max. water uptake level (Δmmax at 98% rh)” value ([4]; 98% rh, 25° C.) was less than 1 % m/m, the “hygroscopicity classification acc. to Ph. Eur. criteria (section 5.11.)” value ([4]; dm (80% rh−40% rh), 25° C.) was “not hygroscopic (dm (80% rh−40% rh)<0.2 wt %: not hygroscopic)” and the water uptake levels ([4]; relative humidity range 40-80% rh, 25° C.) was less than 1 % m/m. For the same compound, the “melting/decomposition temperature (thermal stability)” value [5] was “above 200 °C”.
With `COc1ccc([C@@H](O)c2cc(-c3ncnc4cc(N5CCOCC5)ccc34)c(F)cc2Cl)nn1` [amorphous material, (S)-[2-chloro-4-fluoro-5-(7-morpholin-4-yl-quinazolin-4-yl)phenyl]-(6-methoxy-pyridazin-3-yl)-methanol] the “water uptake / hygroscopic behaviour (in words)” value [4] was “significant water uptake”, the “water uptake / hygroscopic behaviour (in words)” value ([4]; listed as amorphous solid form) was “hygroscopic” and the “melting/decomposition temperature (thermal stability)” value [5] was 170 °C.
